Each structure is given as a SMILES string.

The text below walks through data of patent US20190175571A1, “IMIDAZOLE DERIVATIVES AND THEIR USE IN THE TREATMENT OF AUTOIMMUNE OR INFLAMMATORY DISEASES OR CANCERS” (GLAXOSMITHKLINE INTELLECTUAL PROPERTY (NO.2) LIMITED, priority 2016, published 2019).

One data set deals with T1, BRDT BD2 (Homo sapiens, UniProt Q58F21, Y66A).
T1 construct: BRDT (1-397) (Y66A) and (Y309A); made in house; host or cells: E. coli (pET28a)
The experiment in a line: TR-FRET competition assay, BRDT BD2. The class given is binding. The settings on record: TR-FRET competition with Reference Compound X; range stated for the listed group; read-out: mean pIC50 in the BRDT BD2 assay (converted). On the technique in general: Time-resolved FRET reads energy transfer from a long-lived donor to a nearby acceptor.

In another data set the target is T2, BRD2 BD1 (Homo sapiens, UniProt P25440, Y386A).
T2 construct: BRD2 (1-473) (Y113A) and (Y386A); made in house; host or cells: E. coli (pET15b)
T2 sequence (P25440 1-473 Y386A): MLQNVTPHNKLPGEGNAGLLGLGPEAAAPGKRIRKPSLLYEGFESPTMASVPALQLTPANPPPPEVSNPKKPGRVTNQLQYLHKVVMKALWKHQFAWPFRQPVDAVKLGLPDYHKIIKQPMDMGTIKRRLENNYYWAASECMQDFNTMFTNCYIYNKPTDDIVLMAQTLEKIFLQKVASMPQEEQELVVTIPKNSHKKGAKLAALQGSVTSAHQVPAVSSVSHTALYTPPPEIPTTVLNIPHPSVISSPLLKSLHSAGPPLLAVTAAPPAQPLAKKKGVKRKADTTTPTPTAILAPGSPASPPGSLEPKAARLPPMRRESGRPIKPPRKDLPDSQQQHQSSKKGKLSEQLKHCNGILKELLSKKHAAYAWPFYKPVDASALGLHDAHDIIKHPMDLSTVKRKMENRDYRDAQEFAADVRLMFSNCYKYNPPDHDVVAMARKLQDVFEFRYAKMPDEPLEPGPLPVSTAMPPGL
The experiment in a line: TR-FRET competition assay, BRD2 BD1. The settings on record: TR-FRET competition with Reference Compound X; range stated for the listed group; read-out: mean pIC50 in the BRD2 BD1 assay (converted). The format is binding.

Another data set deals with T3, BRDT BD1 (Homo sapiens, UniProt Q58F21, Y309A).
T3 construct: BRDT (1-397) (Y66A) and (Y309A); made in house; host or cells: E. coli (pET28a)
The experiment in a line: TR-FRET competition assay, BRDT BD1. The format is binding. The settings on record: TR-FRET competition with Reference Compound X; range stated for the listed group; read-out: mean pIC50 in the BRDT BD1 assay (converted).

A further data set concerns the target T4, BRD2 BD2 (Homo sapiens, UniProt P25440, Y113A).
T4 construct: BRD2 (1-473) (Y113A) and (Y386A); made in house; host or cells: E. coli (pET15b)
The experiment in a line: TR-FRET competition assay, BRD2 BD2. The settings on record: TR-FRET competition with Reference Compound X; range stated for the listed group; read-out: mean pIC50 in the BRD2 BD2 assay (converted). The format is binding.

In a further data set the target is T5, BRD3 BD2 (Homo sapiens, UniProt Q15059, Y73A).
T5 construct: BRD3 (1-435) (Y73A) and (Y348A); made in house; host or cells: E. coli (pET15b)
T5 sequence (Q15059 1-435 Y73A): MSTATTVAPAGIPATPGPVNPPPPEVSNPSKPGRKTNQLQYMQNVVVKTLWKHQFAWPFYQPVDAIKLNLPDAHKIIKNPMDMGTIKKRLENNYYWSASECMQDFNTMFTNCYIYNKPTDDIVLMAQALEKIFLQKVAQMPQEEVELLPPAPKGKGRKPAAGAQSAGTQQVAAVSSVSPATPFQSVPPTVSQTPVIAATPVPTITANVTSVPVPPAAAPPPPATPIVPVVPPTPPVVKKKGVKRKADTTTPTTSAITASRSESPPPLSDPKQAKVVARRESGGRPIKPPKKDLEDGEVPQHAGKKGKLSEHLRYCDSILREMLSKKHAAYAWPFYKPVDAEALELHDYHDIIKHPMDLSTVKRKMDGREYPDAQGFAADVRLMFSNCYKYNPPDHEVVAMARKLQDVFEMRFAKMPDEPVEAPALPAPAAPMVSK
The experiment in a line: TR-FRET competition assay, BRD3 BD2. The class given is binding. To be noted: TR-FRET competition with Reference Compound X; range stated for the listed group; read-out: mean pIC50 in the BRD3 BD2 assay (converted).

A further data set addresses T6, BRD3 BD1 (Homo sapiens, UniProt Q15059, Y348A).
T6 construct: BRD3 (1-435) (Y73A) and (Y348A); made in house; host or cells: E. coli (pET15b)
The experiment in a line: TR-FRET competition assay, BRD3 BD1. The format is binding. The settings on record: TR-FRET competition with Reference Compound X; range stated for the listed group; read-out: mean pIC50 in the BRD3 BD1 assay (converted).

The test system of data set [1] is TNP-KLH induced Immunoglobulin-1 (IgG1) production. The experiment in a line: TNP-KLH induced IgG1 production mouse assay. The format is in vivo. To be noted: for Day 14 IgG1: male CD1 mice.
The next data set concerns MCP-1 production. The experiment in a line: LPS induced MCP-1 production from human whole blood. The class given is cell-based. To be noted: human whole blood, LPS 200 ng/mL, 18-24 hours; read-out: mean pIC50, LPS induced MCP-1 production (converted).
The target in the next data set is T7, BRD4 BD1 (Homo sapiens, UniProt O60885, Y390A).
T7 construct: BRD4 (1-477) (Y97A) and (Y390A); made in house; host or cells: E. coli (pET15b)
The experiment in a line: TR-FRET competition assay, BRD4 BD1. The class given is binding. The settings on record: TR-FRET competition with Reference Compound X, single mutant tandem protein; read-out: mean pIC50 in the BRD4 BD1 assay (converted).

Another data set concerns the target T8, BRD4 BD2 (Homo sapiens, UniProt O60885, Y97A).
T8 construct: BRD4 (1-477) (Y97A) and (Y390A); made in house; host or cells: E. coli (pET15b)
The experiment in a line: TR-FRET competition assay, BRD4 BD2. The class given is binding. The settings on record: TR-FRET competition with Reference Compound X, single mutant tandem protein; read-out: mean pIC50 in the BRD4 BD2 assay (converted).

For data set [2], the system named is double mutant tandem BET proteins (BRD2, BRD3, BRD4, BRDT). The experiment in a line: Fluorescence Polarisation binding of Reference Compound X to mutant tandem BET proteins. The arrangement: species or system human. (In general: In fluorescence polarisation assays a small probe gives low polarisation when free and higher when bound to something large.)

T6 sequence (Q15059 1-435 Y348A): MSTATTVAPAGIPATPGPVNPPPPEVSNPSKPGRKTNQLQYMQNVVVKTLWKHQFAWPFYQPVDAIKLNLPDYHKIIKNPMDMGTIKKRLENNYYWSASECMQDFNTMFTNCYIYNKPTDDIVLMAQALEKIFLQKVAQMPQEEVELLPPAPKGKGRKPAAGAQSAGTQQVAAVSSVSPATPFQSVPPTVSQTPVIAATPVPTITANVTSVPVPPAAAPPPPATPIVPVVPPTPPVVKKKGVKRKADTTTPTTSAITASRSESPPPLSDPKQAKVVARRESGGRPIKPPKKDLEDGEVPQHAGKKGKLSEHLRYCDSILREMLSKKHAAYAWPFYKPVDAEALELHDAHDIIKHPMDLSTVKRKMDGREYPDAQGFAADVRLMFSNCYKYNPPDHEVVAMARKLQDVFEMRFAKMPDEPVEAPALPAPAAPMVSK
T4 sequence (P25440 1-473 Y113A): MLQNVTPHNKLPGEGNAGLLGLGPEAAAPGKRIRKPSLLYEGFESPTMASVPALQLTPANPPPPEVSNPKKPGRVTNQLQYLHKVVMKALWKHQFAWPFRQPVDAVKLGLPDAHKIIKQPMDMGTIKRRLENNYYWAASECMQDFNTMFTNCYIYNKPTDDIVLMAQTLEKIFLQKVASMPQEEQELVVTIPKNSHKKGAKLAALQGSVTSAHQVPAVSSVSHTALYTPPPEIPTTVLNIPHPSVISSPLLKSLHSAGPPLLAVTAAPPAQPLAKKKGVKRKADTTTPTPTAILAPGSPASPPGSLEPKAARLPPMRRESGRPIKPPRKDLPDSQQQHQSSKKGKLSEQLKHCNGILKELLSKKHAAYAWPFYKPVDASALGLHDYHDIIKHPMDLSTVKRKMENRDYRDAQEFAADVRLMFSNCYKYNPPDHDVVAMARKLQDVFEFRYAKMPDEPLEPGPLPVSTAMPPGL

Consider `Cc1cc(-c2ncc[nH]2)cn(C)c1=O` [Example 1, 5-(1H-imidazol-2-yl)-1,3-dimethylpyridin-2(1H)-one], for which the IC50 was more than 50.1 µM on BRDT BD2, 0.0126 to 7.94 µM at BRD2 BD1, 0.0398 to 12.6 µM at BRDT BD1 and 1 to 50.1 µM on BRD2 BD2.

Turning to `Cc1cc(-c2nc(Cl)cn2CC2CCCOC2)cn(C)c1=O` (single isomer, unassigned) [Example 29, 5-(4-chloro-1-((tetrahydro-2H-pyran-3-yl)methyl)-1H-imidazol-2-yl)-1,3-dimethylpyridin-2(1H)-one], the IC50 was 0.251 to 1 µM at BRD3 BD2; 2 to 25.1 µM on BRDT BD2; 0.02 to 0.0794 µM on BRD3 BD1; 0.0126 to 7.94 µM on BRD2 BD1; 0.0398 to 12.6 µM on BRDT BD1; 1 to 50.1 µM at BRD2 BD2.

For `Cc1cc(-c2nc(Cl)cn2CC2CCOCC2)cn(C)c1=O` [Example 30, 5-(4-chloro-1-((tetrahydro-2H-pyran-4-yl)methyl)-1H-imidazol-2-yl)-1,3-dimethylpyridin-2(1H)-one], the “% reduction in IgG1 from vehicle” value is 0% in [1] (day 14, 1.5 mg/kg BID oral); 86*** % in data set [1] (day 14, 5.0 mg/kg BID oral, ***P<0.01); 99*** % in [1] (day 14, 15 mg/kg BID oral, ***P<0.01). For the same molecule, the “Day 14 IgG1” value worked out at 5.01 ± 3.30 µg/mL in data set [1] (1.5 mg/kg BID oral, 14 days); 0.85 ± 1.18 µg/mL in data set [1] (5.0 mg/kg BID oral, 14 days); 0.03 ± 0.03 µg/mL in data set [1] (15 mg/kg BID oral, 14 days). In data set [1] (male CD1 mice, 1.5, 5 or 15 mg/kg BID oral, 14 days), the “adverse side effects during in life phase” value is on record as “No adverse side effects were observed”. In addition, at BRD3 BD1, the IC50 was 0.02 to 0.0794 µM.

As to `Cc1cc(-c2nc(C(=O)O)cn2CC2CCOCC2)cn(C)c1=O` [Example 35, 2-(1,5-dimethyl-6-oxo-1,6-dihydropyridin-3-yl)-1-((tetrahydro-2H-pyran-4-yl)methyl)-1H-imidazole-4-carboxylic acid], the IC50 in the data set on MCP-1 production is more than 20 µM.

Take `Cc1cc(-c2nccn2CC2CCOCC2)cn(C)c1=O` [Example 6, 1,3-dimethyl-5-(1-((tetrahydro-2H-pyran-4-yl)methyl)-1H-imidazol-2-yl)pyridin-2(1H)-one]: the IC50 is 2 to 25.1 µM at BRDT BD2, 0.0126 to 7.94 µM at BRD2 BD1, 0.0398 to 12.6 µM at BRDT BD1 and 1 to 50.1 µM on BRD2 BD2.

Consider `Cc1cc(-c2nccn2CC(C)C)cn(C)c1=O` [Example 5, 5-(1-isobutyl-1H-imidazol-2-yl)-1,3-dimethylpyridin-2(1H)-one], for which the IC50 on BRDT BD2 was 2 to 25.1 µM; at BRD2 BD1, 0.0126 to 7.94 µM; at BRDT BD1, 0.0398 to 12.6 µM; on BRD2 BD2, 1 to 50.1 µM.

`COCC(COC)n1cc(Cl)nc1-c1cc(C)c(=O)n(C)c1` [Example 22, 5-(4-chloro-1-(1,3-dimethoxypropan-2-yl)-1H-imidazol-2-yl)-1,3-dimethylpyridin-2(1H)-one]: the IC50 on BRD4 BD1 was 0.0501 µM; on BRD4 BD2, 2 µM; with MCP-1 production, 0.1 µM.

In the case of `Cc1cc(-c2nccn2CC2CCCCO2)cn(C)c1=O` (racemic) [Example 7, rac-1,3-dimethyl-5-(1-((tetrahydro-2H-pyran-2-yl)methyl)-1H-imidazol-2-yl)pyridin-2(1H)-one], the IC50 is 2 to 25.1 µM on BRDT BD2, 0.0126 to 7.94 µM on BRD2 BD1, 0.0398 to 12.6 µM at BRDT BD1 and 1 to 50.1 µM at BRD2 BD2.

Turning to `COc1ccc2c(c1)C(c1ccc(Cl)cc1)=N[C@@H](CC(=O)NCCCCCNC(=O)CCCCCC1(C)/C(=C/C=C/C=C/C3=[N+](CCCCS(=O)(=O)O)c4ccc(S(=O)(=O)O)cc4C3(C)C)N(CCCCS(=O)(=O)[O-])c3ccc(S(=O)(=O)O)cc31)c1nnc(C)n1-2` (stereo partly drawn) [Reference Compound X], the “reduction in Kd versus non mutated, wild type tandem BET proteins” value in data set [2] is more than 1000 fold.

Consider `CC(=O)N1CCCC(Cn2cc(Cl)nc2-c2cc(C)c(=O)n(C)c2)C1` (single isomer, unassigned) [Example 25, 5-(1-((1-acetylpiperidin-3-yl)methyl)-4-chloro-1H-imidazol-2-yl)-1,3-dimethylpyridin-2(1H)-one], for which the IC50 was 0.251 to 1 µM at BRD3 BD2; 2 to 25.1 µM at BRDT BD2; 0.02 to 0.0794 µM on BRD3 BD1; 0.0126 to 7.94 µM on BRD2 BD1; 0.0398 to 12.6 µM at BRDT BD1; 1 to 50.1 µM at BRD2 BD2.

In the case of `Cc1cc(-c2nccn2CC2CC2)cn(C)c1=O` [Example 3, 5-(1-(cyclopropylmethyl)-1H-imidazol-2-yl)-1,3-dimethylpyridin-2(1H)-one], the IC50 is 2 to 25.1 µM at BRDT BD2, 0.0126 to 7.94 µM at BRD2 BD1, 0.0398 to 12.6 µM at BRDT BD1 and 1 to 50.1 µM at BRD2 BD2.
